Measured values as given in ChEMBL document CHEMBL5325449, “Influence of N-arylsulfonamido d-valine N-substituents on the selectivity and potency of matrix metalloproteinase inhibitors” (Bioorg Med Chem, 2023).

How the values were obtained:
Collagenase 3 = Collagenase 3 (Homo sapiens, UniProt P45452); experiment: (§1) Inhibition of human recombinant MMP-13 (20 to 471 residues) expressed in NS0 cells using (7-methoxycoumarin-4-y1)-acetyl-Pro-Leu-Gly-Leu-[3-(2,4-dinitropheny1)-L-2,3-diaminopropionyl]-Ala-Arg-NH2 as substrate preincubated with enzyme for 30 mins followed by substrate addition and measured after 10 mins by fluorescence based analysis
[1] = target: Matrix metalloproteinase-9 (Homo sapiens, UniProt P14780, Q279R); experiment: as §1, with “MMP-9” for “MMP-13”, “707” for “471”, “residues) Gln279Arg mutant” for “residues)”, “CHO” for “NS0”; assay type: cell-based
Sequence of Matrix metalloproteinase-9 (P14780 107-707 Q279R limits assumed): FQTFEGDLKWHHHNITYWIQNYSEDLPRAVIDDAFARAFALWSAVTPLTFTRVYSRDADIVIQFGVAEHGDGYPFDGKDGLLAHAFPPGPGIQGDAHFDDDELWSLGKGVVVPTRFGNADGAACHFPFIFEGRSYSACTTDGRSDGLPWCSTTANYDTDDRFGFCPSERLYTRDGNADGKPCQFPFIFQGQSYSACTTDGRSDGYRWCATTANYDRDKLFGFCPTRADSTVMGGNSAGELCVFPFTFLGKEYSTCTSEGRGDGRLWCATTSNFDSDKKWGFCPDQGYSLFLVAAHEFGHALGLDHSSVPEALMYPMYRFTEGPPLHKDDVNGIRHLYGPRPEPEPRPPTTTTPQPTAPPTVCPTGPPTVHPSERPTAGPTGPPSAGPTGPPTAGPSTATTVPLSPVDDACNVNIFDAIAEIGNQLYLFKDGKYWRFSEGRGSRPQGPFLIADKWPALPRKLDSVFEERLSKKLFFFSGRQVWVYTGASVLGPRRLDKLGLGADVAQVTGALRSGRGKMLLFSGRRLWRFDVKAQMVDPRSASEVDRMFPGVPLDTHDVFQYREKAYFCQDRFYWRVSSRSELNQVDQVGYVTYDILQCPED

[2] = target: 72 kDa type IV collagenase (Homo sapiens, UniProt P08253); experiment: as §1, with “MMP-2 (34” for “MMP-13 (20”, “660” for “471”, “CHO” for “NS0”; assay type: cell-based
Sequence of 72 kDa type IV collagenase (P08253 whole entry): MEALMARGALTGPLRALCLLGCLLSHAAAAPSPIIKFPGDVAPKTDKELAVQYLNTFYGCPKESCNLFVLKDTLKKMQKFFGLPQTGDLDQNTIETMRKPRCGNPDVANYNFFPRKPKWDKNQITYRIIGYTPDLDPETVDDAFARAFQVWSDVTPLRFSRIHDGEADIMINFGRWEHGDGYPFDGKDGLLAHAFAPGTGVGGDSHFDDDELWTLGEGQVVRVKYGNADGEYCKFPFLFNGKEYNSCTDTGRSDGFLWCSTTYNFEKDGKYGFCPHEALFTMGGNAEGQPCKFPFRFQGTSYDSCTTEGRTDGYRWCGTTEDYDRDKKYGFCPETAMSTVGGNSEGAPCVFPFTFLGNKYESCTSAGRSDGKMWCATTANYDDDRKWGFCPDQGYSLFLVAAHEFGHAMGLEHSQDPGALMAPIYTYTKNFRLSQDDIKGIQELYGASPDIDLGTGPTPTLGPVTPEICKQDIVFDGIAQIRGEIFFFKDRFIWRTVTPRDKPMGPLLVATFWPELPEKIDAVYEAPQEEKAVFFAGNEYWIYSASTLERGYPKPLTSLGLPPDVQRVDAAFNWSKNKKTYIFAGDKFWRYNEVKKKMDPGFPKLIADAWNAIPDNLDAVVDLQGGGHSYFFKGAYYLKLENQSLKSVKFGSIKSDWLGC

Neutrophil collagenase = Neutrophil collagenase (Homo sapiens, UniProt P22894); experiment: as §1, with “MMP-8 (21” for “MMP-13 (20”, “467” for “471”; assay type: cell-based
Sequence of Neutrophil collagenase (P22894 whole entry): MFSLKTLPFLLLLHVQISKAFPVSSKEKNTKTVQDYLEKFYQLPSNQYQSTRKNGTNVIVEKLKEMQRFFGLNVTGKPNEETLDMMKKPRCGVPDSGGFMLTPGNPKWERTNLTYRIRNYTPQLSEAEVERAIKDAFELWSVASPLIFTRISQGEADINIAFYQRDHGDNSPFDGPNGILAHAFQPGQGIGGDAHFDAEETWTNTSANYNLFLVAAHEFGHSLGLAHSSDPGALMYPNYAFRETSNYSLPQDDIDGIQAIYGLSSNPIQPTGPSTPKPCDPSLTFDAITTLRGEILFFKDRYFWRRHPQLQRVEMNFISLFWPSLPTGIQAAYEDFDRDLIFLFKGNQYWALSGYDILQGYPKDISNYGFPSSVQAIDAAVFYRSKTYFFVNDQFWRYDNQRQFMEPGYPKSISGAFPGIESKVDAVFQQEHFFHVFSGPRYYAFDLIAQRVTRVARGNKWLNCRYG

[3] = target: Macrophage metalloelastase (Homo sapiens, UniProt P39900, V97L); experiment: as §1, with “MMP-12 (17” for “MMP-13 (20”, “470” for “471”, “residues) Val97Leu mutant” for “residues)”; assay type: cell-based
Sequence of Macrophage metalloelastase (P39900 whole entry V97L): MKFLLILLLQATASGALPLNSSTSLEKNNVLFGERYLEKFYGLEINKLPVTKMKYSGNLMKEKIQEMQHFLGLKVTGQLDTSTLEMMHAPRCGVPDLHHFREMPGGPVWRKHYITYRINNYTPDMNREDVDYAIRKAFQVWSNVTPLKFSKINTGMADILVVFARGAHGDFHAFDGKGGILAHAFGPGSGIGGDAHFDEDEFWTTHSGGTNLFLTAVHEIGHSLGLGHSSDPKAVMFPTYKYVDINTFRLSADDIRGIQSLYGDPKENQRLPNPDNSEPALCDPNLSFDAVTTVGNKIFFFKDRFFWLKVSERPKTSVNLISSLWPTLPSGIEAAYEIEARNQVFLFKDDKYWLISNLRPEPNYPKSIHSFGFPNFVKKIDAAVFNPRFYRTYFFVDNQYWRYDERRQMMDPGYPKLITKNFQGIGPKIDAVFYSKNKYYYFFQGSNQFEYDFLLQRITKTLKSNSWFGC

Structure (SMILES) | IC50 (Collagenase 3) [nM] | IC50 [1] [nM] | IC50 [2] [nM] | IC50 (Neutrophil collagenase) [nM] | IC50 [3] [nM]
CCN([C@@H](C(=O)O)C(C)C)S(=O)(=O)c1ccc(-c2nc(-c3ccc(C)s3)no2)cc1 | 252 | 33 | 0.7 | 149 | 58
Cc1ccc(-c2noc(-c3ccc(S(=O)(=O)N(Cc4ccccc4)[C@@H](C(=O)O)C(C)C)cc3)n2)s1 | 987 | 95 | 5 | 580 | 113
CCCCN([C@@H](C(=O)O)C(C)C)S(=O)(=O)c1ccc(-c2nc(-c3ccc(C)s3)no2)cc1 | 212 | 87 | 10 | 547 | 105
Cc1ccc(-c2noc(-c3ccc(S(=O)(=O)N(C)[C@@H](C(=O)O)C(C)C)cc3)n2)s1 | 370 | 36 | 5 | 13 | 37
CCCCCCCCN([C@@H](C(=O)O)C(C)C)S(=O)(=O)c1ccc(-c2nc(-c3ccc(C)s3)no2)cc1 | > 10000 | 4000 | 990 |  | 3600
CCCCCN([C@@H](C(=O)O)C(C)C)S(=O)(=O)c1ccc(-c2nc(-c3ccc(C)s3)no2)cc1 | 104 | 87 | 32 | 466 | 162
Cc1ccc(-c2noc(-c3ccc(S(=O)(=O)N(CCCCF)[C@@H](C(=O)O)C(C)C)cc3)n2)s1 | 96 | 25 | 3 | 101 | 41
Cc1ccc(-c2noc(-c3ccc(S(=O)(=O)N(CCCCCCCCCCCCN=[N+]=[N-])[C@@H](C(=O)O)C(C)C)cc3)n2)s1 | 2000 | 933 | 57 | 923 | 4000
Cc1ccc(-c2noc(-c3ccc(S(=O)(=O)N(CCCC(F)(F)F)[C@@H](C(=O)O)C(C)C)cc3)n2)s1 | 391 | 154 | 28 | 371 | 164
CCCCCCN([C@@H](C(=O)O)C(C)C)S(=O)(=O)c1ccc(-c2nc(-c3ccc(C)s3)no2)cc1 | 333 | 329 | 80 | > 10000 | 527
Cc1ccc(-c2noc(-c3ccc(S(=O)(=O)N(CCF)[C@@H](C(=O)O)C(C)C)cc3)n2)s1 | 458 | 34 | 0.59 | 90 | 36
CC(C)[C@@H](NS(=O)(=O)c1ccc(-c2nc(-c3ccc(Cn4cc(CCCCCF)nn4)s3)no2)cc1)C(=O)O | 36 | 1000 | 22 | 89 | 29
CC(C)[C@@H](NS(=O)(=O)c1ccc(-c2nc(-c3ccc(Cn4cc(CCCF)nn4)s3)no2)cc1)C(=O)O | 12 | 102 | 16 | 22 | 13
Cc1ccc(-c2noc(-c3ccc(S(=O)(=O)N(CCOCOCCCOCCN=[N+]=[N-])[C@@H](C(=O)O)C(C)C)cc3)n2)s1 | 93 | 36 | 8 | 83 | 182
CCCN([C@@H](C(=O)O)C(C)C)S(=O)(=O)c1ccc(-c2nc(-c3ccc(C)s3)no2)cc1 | 350 | 92 | 5 | 190 | 26
Cc1ccc(-c2noc(-c3ccc(S(=O)(=O)N[C@@H](C(=O)O)C(C)C)cc3)n2)s1 | 57 | 13 | 4 | 26 | 14
CCCCCCCCCCCCCCCCN([C@@H](C(=O)O)C(C)C)S(=O)(=O)c1ccc(-c2nc(-c3ccc(C)s3)no2)cc1 | > 10000 | > 10000 | > 10000 | > 10000 | > 10000
